From patent US9096518B2, “Substituted hydroxamic acids and uses thereof” (Millennium Pharmaceuticals, Inc., priority 2009, dated 2015)

Molecular target: T1, purified human HDAC6 (Homo sapiens, UniProt Q9UBN7)
T1 construct: purchased BPS Bioscience 5006
T1 sequence (Q9UBN7 1-1215): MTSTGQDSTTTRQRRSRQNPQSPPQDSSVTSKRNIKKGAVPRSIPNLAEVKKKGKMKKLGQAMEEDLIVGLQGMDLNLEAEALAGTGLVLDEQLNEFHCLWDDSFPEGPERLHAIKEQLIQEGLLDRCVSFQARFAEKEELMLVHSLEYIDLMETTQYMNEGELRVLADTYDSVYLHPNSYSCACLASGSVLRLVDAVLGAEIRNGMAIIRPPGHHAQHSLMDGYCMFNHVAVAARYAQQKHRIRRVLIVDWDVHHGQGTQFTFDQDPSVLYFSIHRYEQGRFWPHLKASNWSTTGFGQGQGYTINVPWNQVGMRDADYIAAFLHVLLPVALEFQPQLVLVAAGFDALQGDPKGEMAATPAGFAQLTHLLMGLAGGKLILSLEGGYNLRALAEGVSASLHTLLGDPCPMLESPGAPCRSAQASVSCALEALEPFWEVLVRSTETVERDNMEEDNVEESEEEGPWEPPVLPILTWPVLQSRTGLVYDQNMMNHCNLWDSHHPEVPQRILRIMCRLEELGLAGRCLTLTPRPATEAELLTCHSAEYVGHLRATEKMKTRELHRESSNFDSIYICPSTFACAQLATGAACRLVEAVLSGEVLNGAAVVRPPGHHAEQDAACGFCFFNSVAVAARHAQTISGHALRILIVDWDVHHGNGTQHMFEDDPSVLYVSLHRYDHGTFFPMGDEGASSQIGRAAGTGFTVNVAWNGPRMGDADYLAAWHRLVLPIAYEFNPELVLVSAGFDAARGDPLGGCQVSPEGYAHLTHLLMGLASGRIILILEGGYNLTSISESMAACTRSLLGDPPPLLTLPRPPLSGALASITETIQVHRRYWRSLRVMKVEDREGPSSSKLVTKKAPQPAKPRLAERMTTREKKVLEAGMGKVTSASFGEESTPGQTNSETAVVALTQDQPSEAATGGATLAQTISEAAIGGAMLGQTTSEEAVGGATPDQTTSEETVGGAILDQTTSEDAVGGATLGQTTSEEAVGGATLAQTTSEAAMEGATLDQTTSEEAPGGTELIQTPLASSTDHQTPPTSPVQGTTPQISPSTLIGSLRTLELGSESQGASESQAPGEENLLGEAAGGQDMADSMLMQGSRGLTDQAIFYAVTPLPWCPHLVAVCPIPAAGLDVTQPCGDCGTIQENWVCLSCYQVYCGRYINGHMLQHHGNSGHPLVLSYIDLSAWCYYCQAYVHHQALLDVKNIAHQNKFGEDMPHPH
Test: HDAC6 Enzyme Assay
Type: biochemical
Outline: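 Purified human HDAC6 incubated 1 h at 30 °C with Ac-Arg-Gly-Lys(Ac)-AMC peptide and compound; reaction stopped with trichostatin A, then trypsin releases AMC, read by fluorescence (Ex 340/Em 460 nm). IC50 from concentration-response curves relative to DMSO controls.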

Row | SMILES | IC50 [nM]
1 | O=C(NO)c1ccc2c(c1)CCN(C(=O)NC1CCCCC1)C2 [Compound 101, N^2-cyclohexyl-N^6-hydroxy-3,4-dihydroisoquinoline-2,6(1H)-dicarboxamide] | < 50
2 | O=C(NO)c1ccc2c(c1)CCN(C(=O)CC1CC1)C2 [Compound 106, 2-(cyclopropylacetyl)-N-hydroxy-1,2,3,4-tetrahydroisoquinoline-6-carboxamide] | 100 to 500
3 | O=C(NO)c1ccc2c(c1)CCN(Cc1cccc(OC(F)(F)F)c1)C2 [Compound 109, N-hydroxy-2-[3-(trifluoromethoxy)benzyl]-1,2,3,4-tetrahydroisoquinoline-6-carboxamide] | 100 to 500
4 | O=C(NO)c1ccc2c(c1)CCN(CCOc1ccc(Cl)cc1)C2 [Compound 111, 2-[2-(4-chlorophenoxy)ethyl]-N-hydroxy-1,2,3,4-tetrahydroisoquinoline-6-carboxamide] | 100 to 500
5 | O=C(NO)c1ccc2c(c1)CCN(S(=O)(=O)c1csc(-c3ccon3)c1)C2 [Compound 112, N-hydroxy-2-[(5-isoxazol-3-yl-3-thienyl)sulfonyl]-1,2,3,4-tetrahydroisoquinoline-6-carboxamide] | 100 to 500
6 | O=C(NO)c1ccc2c(c1)CCCN(C(=O)C13CC4CC(CC(C4)C1)C3)C2 [Compound 232, 2-(1-adamantylcarbonyl)-N-hydroxy-2,3,4,5-tetrahydro-1H-2-benzazepine-7-carboxamide] | 100 to 500
7 | Cn1ccc(C(=O)N2CCCc3cc(C(=O)NO)ccc3C2)n1 [Compound 233, N-hydroxy-2-[(1-methyl-1H-pyrazol-3-yl)carbonyl]-2,3,4,5-tetrahydro-1H-2-benzazepine-7-carboxamide] | > 500
8 | COc1ccc(C(=O)N2CCCc3cc(C(=O)NO)ccc3C2)cc1 [Compound 235, N-hydroxy-2-(4-methoxybenzoyl)-2,3,4,5-tetrahydro-1H-2-benzazepine-7-carboxamide] | 100 to 500
9 | O=C(NO)c1ccc2c(c1)CCCN(C(=O)Cc1cc(C(F)(F)F)cc(C(F)(F)F)c1)C2 [Compound 236, 2-{[3,5-bis(trifluoromethyl)phenyl]acetyl}-N-hydroxy-2,3,4,5-tetrahydro-1H-2-benzazepine-7-carboxamide] | > 500
10 | CC(C)(C)OC(=O)Nc1ccc(-c2cc(C(=O)N3CCc4cc(C(=O)NO)ccc4C3)no2)cc1 [Compound 237, tert-butyl[4-(3-{[6-[(hydroxyamino)carbonyl]-3,4-dihydroisoquinolin-2(1H)-yl]carbonyl}isoxazol-5-yl)phenyl]carbamate] | 50 to 100
11 | CC(C)(C)c1ccc(C(=O)N2CCCc3cc(C(=O)NO)ccc3C2)cc1 [Compound 238, 2-(4-tert-butylbenzoyl)-N-hydroxy-2,3,4,5-tetrahydro-1H-2-benzazepine-7-carboxamide] | 100 to 500
12 | O=C(NO)c1ccc2c(c1)CCCN(C(=O)c1cc3cc(Cl)ccc3[nH]1)C2 [Compound 240, 2-[(5-chloro-1H-indol-2-yl)carbonyl]-N-hydroxy-2,3,4,5-tetrahydro-1H-2-benzazepine-7-carboxamide] | < 50
13 | O=C(NO)c1ccc2c(c1)CCCN(C(=O)c1c(F)cc(F)cc1F)C2 [Compound 241, N-hydroxy-2-(2,4,6-trifluorobenzoyl)-2,3,4,5-tetrahydro-1H-2-benzazepine-7-carboxamide] | 100 to 500
14 | COc1cccc2cc(C(=O)N3CCCc4cc(C(=O)NO)ccc4C3)oc12 [Compound 242, N-hydroxy-2-[(7-methoxy-1-benzofuran-2-yl)carbonyl]-2,3,4,5-tetrahydro-1H-2-benzazepine-7-carboxamide] | < 50
15 | Cc1cc(C(=O)N2CCCc3cc(C(=O)NO)ccc3C2)no1 [Compound 245, N-hydroxy-2-[(5-methylisoxazol-3-yl)carbonyl]-2,3,4,5-tetrahydro-1H-2-benzazepine-7-carboxamide] | 100 to 500
16 | O=C(NO)c1ccc2c(c1)CCCN(C(=O)C1CCCCCC1)C2 [Compound 246, 2-(cycloheptylcarbonyl)-N-hydroxy-2,3,4,5-tetrahydro-1H-2-benzazepine-7-carboxamide] | 100 to 500
17 | O=C(NO)c1ccc2c(c1)CCCN(C(=O)C1CCCCC1)C2 [Compound 247, 2-(cyclohexylcarbonyl)-N-hydroxy-2,3,4,5-tetrahydro-1H-2-benzazepine-7-carboxamide] | 100 to 500
18 | O=C(NO)c1ccc2c(c1)CCN(C(=O)C13CC4CC(CC(O)(C4)C1)C3)C2 [Compound 248, N-hydroxy-2-[(3-hydroxy-1-adamantyl)carbonyl]-1,2,3,4-tetrahydroisoquinoline-6-carboxamide] | < 50

Continued, values first:

Row | IC50 [nM] | SMILES
19 | < 50 | O=C(NO)c1ccc2c(c1)CCN(C(=O)Nc1ccccc1-c1ccccc1)C2 [Compound 102, N^2-biphenyl-2-yl-N^6-hydroxy-3,4-dihydroisoquinoline-2,6(1H)-dicarboxamide]
20 | < 50 | CC(NC(=O)N1CCc2cc(C(=O)NO)ccc2C1)c1cccc2ccccc12 (centres unmarked) [Compound 103, N^6-hydroxy-N^2-[1-(1-naphthyl)ethyl]-3,4-dihydroisoquinoline-2,6(1H)-dicarboxamide]
21 | < 50 | CC(C)c1ccc(NC(=O)N2CCc3cc(C(=O)NO)ccc3C2)cc1 [Compound 104, N^6-hydroxy-N^2-(4-isopropylphenyl)-3,4-dihydroisoquinoline-2,6(1H)-dicarboxamide]
22 | < 50 | Cc1ccc(CNC(=O)N2CCc3cc(C(=O)NO)ccc3C2)cc1 [Compound 105, N^6-hydroxy-N^2-(4-methylbenzyl)-3,4-dihydroisoquinoline-2,6(1H)-dicarboxamide]
23 | 100 to 500 | CC(c1ccccc1)N1CCc2cc(C(=O)NO)ccc2C1 (centres unmarked) [Compound 110, N-hydroxy-2-(1-phenylethyl)-1,2,3,4-tetrahydroisoquinoline-6-carboxamide]
24 | 50 to 100 | Cc1cccc(C)c1NC(=O)CN1CCc2cc(C(=O)NO)ccc2C1 [Compound 116, 2-{2-[(2,6-dimethylphenyl)amino]-2-oxoethyl}-N-hydroxy-1,2,3,4-tetrahydroisoquinoline-6-carboxamide]
25 | 100 to 500 | O=C(NO)c1ccc2c(c1)CCCN(C(=O)c1cccc3ccccc13)C2 [Compound 234, N-hydroxy-2-(1-naphthoyl)-2,3,4,5-tetrahydro-1H-2-benzazepine-7-carboxamide]
26 | < 50 | O=C(NO)c1ccc2c(c1)CCCN(C(=O)c1cc3ccccc3s1)C2 [Compound 239, 2-(1-benzothien-2-ylcarbonyl)-N-hydroxy-2,3,4,5-tetrahydro-1H-2-benzazepine-7-carboxamide]
27 | 100 to 500 | O=C(NO)c1ccc2c(c1)CCCN(C(=O)c1cnc3ccccc3n1)C2 [Compound 243, N-hydroxy-2-(quinoxalin-2-ylcarbonyl)-2,3,4,5-tetrahydro-1H-2-benzazepine-7-carboxamide]
28 | 100 to 500 | O=C(NO)c1ccc2c(c1)CCCN(C(=O)c1ccc(-c3ccccc3)cc1)C2 [Compound 244, 2-(biphenyl-4-ylcarbonyl)-N-hydroxy-2,3,4,5-tetrahydro-1H-2-benzazepine-7-carboxamide]
29 | < 50 | O=C(NO)c1ccc2c(c1)CCCN(C(=O)c1cc3ccccc3o1)C2 [Compound 250, 2-(1-benzofuran-2-ylcarbonyl)-N-hydroxy-2,3,4,5-tetrahydro-1H-2-benzazepine-7-carboxamide]
